Literature values in patent US20070265329A1, “Methods for the prevention of acute and delayed chemotherapy-induced nausea and vomiting (CINV)” (priority 2006, published 2007).
Like-named read-outs stand apart in the source and are kept apart here.

Tests used:
[1] = tested on: delayed onset CINV; details: administered twice a day
[2] = tested on: patients (acute phase CINV); details: over 24 hours (acute phase); study of 233 patients
[3] = or 7 days
[4] = tested on: patients following moderately emetogenic chemotherapy

## CN1C2CCCC1CC(NC(=O)c1nn(C)c3ccccc13)C2 (centres unmarked) [Kytril®, granisetron]
[1]
  treatment of delayed onset CINV: effective
Compared with normal volunteers
  clearance in cancer patients: approximately half that of normal volunteers
oral, 1 mg bid over seven days
  peak plasma concentrate: 6.0 ng/mL
[2]
  complete response (no vomiting, no moderate or severe nausea, no rescue medication): 81%

## O=C1c2cccc3c2[C@H](CCC3)CN1[C@@H]1CN2CCC1CC2 [Aloxi®, palonosetron]
[3]
  still detectable in the systemic circulation at: ≥ 168 h
[4]; days 2-5 following moderately emetogenic chemotherapy
  patients who did not vomit or need additional medication for nausea: 64%
[4]; first day following moderately emetogenic chemotherapy
  patients who did not vomit or need additional medication for nausea: 72%
[4]; patients taking Aloxi
  most common side effects: headache and constipation
